From US5962633A, “Cytotoxic T-lymphocyte antigen as cysteine protease inhibitor” (Bayer Corporation, priority 1995, dated 1999)
Where two headings read alike, the source gives them in different places. No end group written: not given here.

Key:
[1] = system: cartilage proteoglycan degradation; settings: 100 μM; cited from earlier work
human liver Cathepsin L = molecular target: T1, human liver Cathepsin L (Homo sapiens, UniProt P07711); experiment: Cathepsin L fluorescence assay (hydrolysis of Z-Phe-Arg-AMC); assay type: biochemical
T1 construct: from tissue; host or cells: human liver
T1 sequence (P07711 114-288 limits assumed): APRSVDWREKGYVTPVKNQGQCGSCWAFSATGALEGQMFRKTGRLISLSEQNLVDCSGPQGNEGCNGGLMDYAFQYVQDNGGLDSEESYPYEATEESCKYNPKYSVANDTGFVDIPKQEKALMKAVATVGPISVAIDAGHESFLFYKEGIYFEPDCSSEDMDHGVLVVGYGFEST
T1 sequence (P07711 292-333 limits assumed): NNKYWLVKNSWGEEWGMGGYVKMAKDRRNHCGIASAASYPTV
Protocol: A fluorescence based assay was set up according to Barrett and Kirschke (Barrett et al., 1981, Meth. in Enz., 80:535).
The enzyme sample was diluted with 750 μl of assay buffer (340 mM sodium acetate--60 mM acetic acid--4 mM disodium EDTA, pH 5.5 and 8 mM DTT added fresh) and various concentrations of CTAL-2β (a final concentration of 5-50 nM), was added. After an incubation period of 6 minutes at room temperature, 1500 μl of 0.1% Brij 35 was added. The substrate Z-Phe-Arg-AMC (AMC is aminomethyl-coumarin) was added at a final concentration of either 2.5 μM or 5.0 μM.
The fluoresence of the free aminomethyl-coumarin was measured in an SLM 4800S fluorimeter by excitation at 370 nm and emission at 432 nm over a six minute time period. […] In order to calculate the velocities, a linear least squares analysis was performed over the initial linear part of the data.
The Ki value is equal to the negative of the X-axis intercept that gives the same velocity at the different substrate concentrations if there is competitive inhibition (Dixon et al., 1979, Enzymes, 3rd Ed., Academic Press, New York, page, 365).
These peptides were tested for inhibition of Cathepsin L activity using the assays described previously. Briefly, Cathepsin L (19 pM final as determined by active site titration using E-64, Barret & Kirschke, 1991) was added to 750 μL of assay buffer consisting of […] sodium acetate--60 mM acetic acid (pH 5.5), 4 mM disodium EDTA, and 8 mM DTT. Peptides were added at concentrations ranging from on to 35 μM. […] The fluorescence of the free aminomethylcoumarin was measured in an SLM 4800s fluorimeter at excitation of 370 nm and an emission at 432 nm over a 6 minute time period. Fluorence was converted to μM AMC released by using a standard curve generated by plotting μM AMC vs. fluorescence, and plotted vs. time. […] The i.c. 50 values were determined from Dixon plots of the form V-/V+ (velocity without peptide/velocity with peptide) vs. peptide concentration. […]

[2] = system: proteoglycan release from articular cartilage explants; experiment: Micro organ culture assay (MOCA): IL-1 induced proteoglycan release from articular cartilage explants; assay type: cell-based, calf; settings: p117 10 μM (best concentration); IL-1 alpha 50 U/ml
Text: The assay system used for testing the peptides for inhibitory activity of proteolglycan release is a micro organ culture assay (MOCA). Papain; cetyl pyridinium chloride and chondroitin sulfate type C was purchased from Sigma Chemical Co. (St. Louis, MO). Interleukin 1 alpha was purchased from Collaborative Research. ABCase, chrondroitinase, ABC lyase, and keratanase were obtained from ICL Na^35 SO4 was purchased from NEN.
Articular cartilage explants from calk knee joints were maintained in culture in DMEM medium containing 20 μCi/ml Na ^35 SO4 for 48 hours for the incorporation of label into newly synthesized proteoglycan (PG). The radiolabelled medium was then removed, the radiolabelled explants washed 3×30 ml cold DMEM and placed into a 96 well plate with or without IL-1 (Interleukin-1 alpha, 50 U/ml) and various concentrations of p117. The explants were incubated first for 24 hours in the presence of IL-1 in order to ensure initiation of IL-1 indicated auto-catalysis prior to the addition of various metalloprotease inhibitors for an additional 72 hours.
The newly synthesized radiolabelled proteoglycans released during the cultivation period were subjected to enzymatic digestion with papain. […] The filter was dried and counted after addition of 10 mls of scintillation cocktail (scintillant).

papain = papain (Carica papaya, UniProt P00784); settings: read-out: i.c. 50 in Papain Assay; substrate Z-Phe-Arg-AMC; papain 33.3 ng/ml; Dixon plot V-/V+ vs. I
Sequence of papain (P00784 134-345): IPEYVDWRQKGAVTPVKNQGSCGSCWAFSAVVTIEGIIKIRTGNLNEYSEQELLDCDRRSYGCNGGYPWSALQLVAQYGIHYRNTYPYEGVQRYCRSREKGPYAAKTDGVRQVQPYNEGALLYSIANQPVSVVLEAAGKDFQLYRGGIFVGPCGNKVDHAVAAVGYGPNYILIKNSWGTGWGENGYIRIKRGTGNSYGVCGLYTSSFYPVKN
Protocol: The fluorescence was measured and the i.c. 50 was determined.

CC(C)C[C@H](NC(=O)[C@H]1O[C@@H]1C(=O)O)C(=O)NCCCCN=C(N)N (relative stereo) [E64, trans-epoxysuccinyl L-leucylamido-(4-guanido)butane]
inhibition of IL-1 stimulated cartilage proteoglycan degradation [1]: did not work

CC(C)CCNC(=O)[C@H](CC(C)C)NC(=O)[C@H]1O[C@@H]1C(=O)O [Ep475]
inhibition of IL-1 stimulated cartilage proteoglycan degradation [1]: did not work

CRGEMAPDLPEYEDLG [p092]
IC50 (human liver Cathepsin L; Cathepsin L 19 pM, 5.0 μM Z-Phe-Arg-NMec (AMC), 6 minute incubation at 25° C., read-out: i.c. 50 (synthetic peptides, Cathepsin L)): 41000 nM

ENKKKIEAHNADYERGKTSFC [P089]
inhibition of Cathepsin L at 10 uM peptide (human liver Cathepsin L; peptide 10 uM, printed in the i.c. 50 column): 25%

YSLDEERHRRLMWEENKKKIEAH [p117]
% inhibition of proteoglycan release [2]: about 30%

B1: monomeric CTLA-2β: monomeric form of recombinant CTLA-2β, mass 12.8 kd, reverse-phase purified (protein, UniProt P12400 1-113, looked up)
Protein CTLA-2-beta: MMSAAPSPDPSLDNEWKEWKTTFAKAYSLDEERHRRLMWEENKKKIEAHNADYERGKTSFYMGLNQFSDLTPEEFRTNCCGSSMCRGEMAPDLPEYEDLGKNSYLTPGRAQPE
IC50 (papain): 14 nM | IC50 (human liver Cathepsin L; reverse-phase purified CTLA-2β, Dixon plot V-/V+ vs. I, substrate Z-Phe-Arg-AMC, read-out: i.c. 50 in Cathepsin L Assay): 18.2 nM
